# Test results taken from patent US20060148646A1, “Controlled release fertilizers containing calcium sulfate and processes for making same” (priority 2004, published 2006).
# Assays:
# [1] = Controlled Release Soil Test (irrigated soil burial test); format: physicochemical
# From the text: To measure the relative solubilities of the products in soil, an irrigated soil burial test (“Controlled Release Soil Test”) was devised such that granules could be retrieved for measurement of their nitrogen content. The following is a description of the test.
# Controlled Release Soil Test
# Procedure for Controlled Release Soil Test
# 1. Screen the sample to obtain −6+7 Tyler mesh granules for the test.
# 2. Label a freezer container with the test description.
# 3. Place the freezer container on the 1200 g balance and tare out.
# 4. Place 300 g of potting soil with a 40% moisture content into the container and record the weight.
# 5. Over the soil place two (2) pieces of fiberglass mesh with 14 meshes to the inch and 1/16 inch openings.
# 6. Tare out the container with the soil and fiberglass mesh screens.
# 7. Spread 5 grams of −6+7 Tyler mesh granules over the screen in a single layer and record the weight.
# 8. Place a large square of fiberglass mesh over the granules, with a stainless steel screen cut to fit over it, so that the shape of the container has been mirrored.
# 9. Once this is shaped, tare out the container and add 150 g of soil and record the weight.
# 10. Repeat this process for each sample to be tested (in triplet if possible).
# 11. After all containers are completed, fill a mist spray bottle with de-ionized water and prime.
# 12. Tare out the weight of the primed mist bottle.
# 13. Mist 4 g of water into each container and immediately place the lid on container and seal.
# 14. After the fertilizer granules have been submerged in a humid soil environment for the allotted time (9 hours, 24 hours, and 3 days), the 150 g of soil is removed from the container.
# 15. Weigh to the nearest 0.0001 g in aluminum weigh pan and tare out.
# 16. Gently remove the two pieces of fiberglass mesh, which contains the remaining fertilizer granules.
# 17. Transfer the granules to the aluminum weigh pan and record the weight of the fertilizer granules.
# 18. Place the fertilizer granules in a laboratory oven to dry at low temperature (50° C.) for 13 hours.
# 19. Remove the dry sample from the oven, weigh to the nearest 0.0001 g and record weight.
# 20. Place the dry fertilizer sample into a 125 mL plastic sample bottle containing 20 g of de-ionized water.
# 21. Allow the sample to dissolve for 3 hours.
# 22. Place approximately 1 ml aliquot of the sample solution onto the sample stage of a refractometer (e.g., Abbe Refractometer).
# 23. Record the refractive index and temperature of the solution.
# 24. Calculate the percent urea retained from the original fertilizer sample.
# To measure the slow or controlled release of the present compositions a Controlled Release Soil Test was employed, described as follows. […]
# [2] = test system: Hybrid “419” Bermudagrass; experiment: Visual turf quality rating, golf course fairway (Example 18); format: in vivo
# Description: (§1) The effect of nitrogen type was evaluated on the quality of hybrid bermudagrass grown under golf course conditions. Five fertilizer compositions were tested which included […] of the present invention, urea and Scotts Turf Builder. Nitrogen sources were applied individually at a rate of 1 lb N/1,000 ft^2 on Apr. 19, 2004. Field test plots were rated weekly for visual quality and scanned for digital image analysis.
# (§2) Research was conducted on a fairway at Pleasant Valley Country Club in Little Rock, Arkansas. The hybrid “419” was bermudagrass was grown and was mowed at 0.5 inches height and clippings were not collected. Nitrogen sources were applied at a rate of 1 lb N/1,000 ft^2 on Apr. 19, 2004. Plots were 3 ft.×6 ft. Air temperatures on April 19th were 65-75° F. Turf quality ratings were made weekly by a single evaluator. Quality ratings considered turf growth and color. A rating of 6 was considered the minimum acceptable turf; a rating of 9 was not considered favorable from a management standpoint since growth was excessive and required frequent mowing. A visual rating of 8 would be considered excellent. Plots were also evaluated weekly using a digital image analysis. Digital images were taken with a Nikon CoolPix 880 camera with a shutter speed of 1/30 sec. and an aperture of f/2.8. Images were downloaded to a personal computer for subsequent analysis. Ratings were terminated when the nitrogen treated plots could not be visually separated from the control. Treatments consisted of 4 single plot replications. The experimental design was a completely randomized design.
# [3] = test system: Hybrid “419” Bermudagrass; experiment: Digital image analysis, measured color hue (Example 18); format: in vivo; design: unit not given here; details: mean of 4 repetitions; fertilizer applied Apr. 19, 2004
# Description: as §1, §2
# [4] = 1 lb N/1,000 ft^2 applied Apr. 19, 2004
structure (smiles),measurement,setting,value
"N.N.O=S(=O)(O)O [AS, (NH4)2SO4]",Control Release Soil Test 9 HR (nitrogen retained),"[1]; ammonium sulfate based granulation products, 9 hours",56.8%
same,Control Release Soil Test 24 HR (nitrogen retained),"[1]; ammonium sulfate based granulation products, 24 hours",30.0%
same,Control Release Soil Test 3 DAY (nitrogen retained),"[1]; ammonium sulfate based granulation products, 3 days",0%
"NC(N)=O [Urea, Carbamide]",time to complete dissolution in the Controlled Release Soil Test,[1],≤ 9 h
same,"Visual Turf Quality Jun. 1, 2004",[2]; [4],7.7 cde
same,"Visual Turf Quality Jun. 7, 2004",[2]; [4],7.7bcde
same,"Visual Turf Quality Jun. 14, 2004",[2]; [4],7.6bcd
same,"Visual Turf Quality Jun. 21, 2004",[2]; [4],7.5bc
same,"Visual Turf Quality May 3, 2004",[2]; [4],7.5abcd
same,"Visual Turf Quality May 9, 2004",[2]; [4],7.3bcd
same,"Visual Turf Quality May 16, 2004",[2]; [4],7.5abcd
same,"Visual Turf Quality May 24, 2004",[2]; [4],7.7bcdef
same,"Visual Turf Quality Apr. 19, 2004","[2]; day of application, 1 lb N/1,000 ft^2, 6 = minimum acceptable, 8 excellent",6.5
same,"Hue Jun. 1, 2004",[3],31.589
same,"Hue Jun. 7, 2004",[3],27.101
same,"Hue Jun. 14, 2004",[3],28.324
same,"Hue Jun. 21, 2004",[3],25.750
same,"Hue May 3, 2004",[3],29.085
same,"Hue May 10, 2004",[3],30.702
same,"Hue May 17, 2004",[3],30.920
same,"Hue May 24, 2004",[3],29.943
